Measured values: ChEMBL document CHEMBL2440080, “Synthesis and biological evaluation of novel acylhydrazone derivatives as potential antitumor agents” (Bioorg Med Chem, 2013)

Key:
Assay type in all cases: functional
[1] = tested on: NCI-H522; assay: Cytotoxicity against human NCI-H522 cells after 48 hrs by sulforhodamine B assay; conditions: NCI-H522, 48 h
[2] = tested on: SNB-75; assay: Cytotoxicity against human SNB75 cells after 48 hrs by sulforhodamine B assay; conditions: SNB-75, 48 h
[3] = tested on: M14; assay: Cytotoxicity against human M14 cells after 48 hrs by sulforhodamine B assay; conditions: M14, 48 h
[4] = tested on: UO-31; assay: Cytotoxicity against human UO31 cells after 48 hrs by sulforhodamine B assay; conditions: UO-31, 48 h
[5] = tested on: OVCAR-5; assay: Cytotoxicity against human OVCAR5 cells after 48 hrs by sulforhodamine B assay; conditions: OVCAR-5, 48 h
[6] = tested on: OVCAR-3; assay: Cytotoxicity against human OVCAR3 cells after 48 hrs by sulforhodamine B assay; conditions: OVCAR-3, 48 h
[7] = tested on: OVCAR-4; assay: Cytotoxicity against human OVCAR4 cells after 48 hrs by sulforhodamine B assay; conditions: OVCAR-4, 48 h
[8] = tested on: K562; assay: Cytotoxicity against human K562 cells after 48 hrs by sulforhodamine B assay; conditions: K562, 48 h
[9] = tested on: SF-268; assay: Cytotoxicity against human SF268 cells after 48 hrs by sulforhodamine B assay; conditions: SF-268, 48 h
[10] = tested on: HCT-116; assay: Cytotoxicity against human HCT116 cells after 48 hrs by sulforhodamine B assay; conditions: HCT-116, 48 h
[11] = tested on: A549; assay: Cytotoxicity against human A549/ATCC cells after 48 hrs by sulforhodamine B assay; conditions: A549, 48 h
[12] = tested on: NCI-H226; assay: Cytotoxicity against human NCI-H226 cells after 48 hrs by sulforhodamine B assay; conditions: NCI-H226, 48 h
[13] = tested on: SN12C; assay: Cytotoxicity against human SN12C cells after 48 hrs by sulforhodamine B assay
[14] = tested on: HT-29; assay: Cytotoxicity against human HT-29 cells after 48 hrs by sulforhodamine B assay; conditions: HT-29, 48 h
[15] = tested on: CAKI-1; assay: Cytotoxicity against human CAKI-1 cells after 48 hrs by sulforhodamine B assay; conditions: CAKI-1, 48 h
[16] = tested on: MOLT-4; assay: Cytotoxicity against human MOLT4 cells after 48 hrs by sulforhodamine B assay; conditions: MOLT-4, 48 h
[17] = tested on: ACHN; assay: Cytotoxicity against human ACHN cells after 48 hrs by sulforhodamine B assay
[18] = tested on: 786-0; assay: Cytotoxicity against human 786-0 cells after 48 hrs by sulforhodamine B assay; conditions: 786-0, 48 h
[19] = tested on: HCT-15; assay: Cytotoxicity against human HCT15 cells after 48 hrs by sulforhodamine B assay; conditions: HCT-15, 48 h
[20] = tested on: NCI-H460; assay: Cytotoxicity against human NCI-H460 cells after 48 hrs by sulforhodamine B assay; conditions: NCI-H460, 48 h
[21] = Cytotoxicity against human EKVX cells after 48 hrs by sulforhodamine B assay
[22] = tested on: SK-MEL-5; assay: Cytotoxicity against human SK-MEL-5 cells after 48 hrs by sulforhodamine B assay; conditions: SK-MEL-5, 48 h
[23] = tested on: UACC-62; assay: Cytotoxicity against human UACC62 cells after 48 hrs by sulforhodamine B assay; conditions: UACC-62, 48 h
[24] = tested on: CCRF-CEM; assay: Cytotoxicity against human CCRF-CEM cells after 48 hrs by sulforhodamine B assay
[25] = tested on: SW-620; assay: Cytotoxicity against human SW620 cells after 48 hrs by sulforhodamine B assay; conditions: SW-620, 48 h
[26] = tested on: OVCAR-8; assay: Cytotoxicity against human OVCAR8 cells after 48 hrs by sulforhodamine B assay; conditions: OVCAR-8, 48 h
[27] = tested on: SNB-19; assay: Cytotoxicity against human SNB19 cells after 48 hrs by sulforhodamine B assay; conditions: SNB-19, 48 h
[28] = Cytotoxicity against human Hs 578T cells after 48 hrs by sulforhodamine B assay
[29] = tested on: RXF 393; assay: Cytotoxicity against human RXF393 cells after 48 hrs by sulforhodamine B assay; conditions: RXF 393, 48 h
[30] = tested on: HCC 2998; assay: Cytotoxicity against human HCC2998 cells after 48 hrs by sulforhodamine B assay; conditions: HCC 2998, 48 h
[31] = tested on: LOX IMVI; assay: Cytotoxicity against human LOXIMVI cells after 48 hrs by sulforhodamine B assay
[32] = tested on: SR; assay: Cytotoxicity against human SR cells after 48 hrs by sulforhodamine B assay
[33] = tested on: T47D; assay: Cytotoxicity against human T47D cells after 48 hrs by sulforhodamine B assay
[34] = tested on: NCI-H322M; assay: Cytotoxicity against human NCI-H322M cells after 48 hrs by sulforhodamine B assay
[35] = tested on: HOP-92; assay: Cytotoxicity against human HOP92 cells after 48 hrs by sulforhodamine B assay; conditions: HOP-92, 48 h
[36] = tested on: NCI-H23; assay: Cytotoxicity against human NCI-H23 cells after 48 hrs by sulforhodamine B assay; conditions: NCI-H23, 48 h
[37] = tested on: U-251; assay: Cytotoxicity against human U251 cells after 48 hrs by sulforhodamine B assay; conditions: U-251, 48 h
[38] = tested on: IGROV-1; assay: Cytotoxicity against human IGROV1 cells after 48 hrs by sulforhodamine B assay; conditions: IGROV-1, 48 h
[39] = tested on: PC-3; assay: Cytotoxicity against human PC3 cells after 48 hrs by sulforhodamine B assay; conditions: PC-3, 48 h
[40] = tested on: A498; assay: Cytotoxicity against human A498 cells after 48 hrs by sulforhodamine B assay; conditions: A498, 48 h
[41] = tested on: SK-MEL-2; assay: Cytotoxicity against human SK-MEL-2 cells after 48 hrs by sulforhodamine B assay; conditions: SK-MEL-2, 48 h
[42] = tested on: NCI/ADR-RES; assay: Cytotoxicity against human NCI/ADR-RES cells after 48 hrs by sulforhodamine B assay
[43] = tested on: Malme-3M; assay: Cytotoxicity against human MALME-3M cells after 48 hrs by sulforhodamine B assay
[44] = tested on: MDA-MB-435; assay: Cytotoxicity against human MDA-MB-435 cells after 48 hrs by sulforhodamine B assay; conditions: MDA-MB-435, 48 h
[45] = tested on: SF-295; assay: Cytotoxicity against human SF295 cells after 48 hrs by sulforhodamine B assay; conditions: SF-295, 48 h
[46] = tested on: UACC-257; assay: Cytotoxicity against human UACC257 cells after 48 hrs by sulforhodamine B assay; conditions: UACC-257, 48 h
[47] = tested on: HOP-62; assay: Cytotoxicity against human HOP62 cells after 48 hrs by sulforhodamine B assay; conditions: HOP-62, 48 h
[48] = tested on: BT-549; assay: Cytotoxicity against human BT549 cells after 48 hrs by sulforhodamine B assay; conditions: BT-549, 48 h
[49] = tested on: MDA-MB-468; assay: Cytotoxicity against human MDA-MB-468 cells after 48 hrs by sulforhodamine B assay; conditions: MDA-MB-468, 48 h
[50] = tested on: MCF7; assay: Cytotoxicity against human MCF7 cells after 48 hrs by sulforhodamine B assay; conditions: MCF7, 48 h
[51] = tested on: MDA-MB-231; assay: Cytotoxicity against human MDA-MB-231 cells after 48 hrs by sulforhodamine B assay; conditions: MDA-MB-231, 48 h
[52] = tested on: HL-60(TB); assay: Cytotoxicity against human HL-60(TB) cells after 48 hrs by sulforhodamine B assay; conditions: HL-60, 48 h
[53] = tested on: COLO 205; assay: Cytotoxicity against human COLO205 cells after 48 hrs by sulforhodamine B assay; conditions: COLO 205, 48 h
[54] = tested on: SK-OV-3; assay: Cytotoxicity against human SKOV3 cells after 48 hrs by sulforhodamine B assay; conditions: SK-OV-3, 48 h
[55] = tested on: TK-10; assay: Cytotoxicity against human TK10 cells after 48 hrs by sulforhodamine B assay; conditions: TK-10, 48 h
[56] = tested on: DU-145; assay: Cytotoxicity against human DU145 cells after 48 hrs by sulforhodamine B assay; conditions: DU-145, 48 h
[57] = tested on: KM12; assay: Cytotoxicity against human KM12 cells after 48 hrs by sulforhodamine B assay; conditions: KM12, 48 h
[58] = tested on: SF-539; assay: Cytotoxicity against human SF539 cells after 48 hrs by sulforhodamine B assay; conditions: SF-539, 48 h
[59] = tested on: SK-MEL-28; assay: Cytotoxicity against human SK-MEL-28 cells after 48 hrs by sulforhodamine B assay; conditions: SK-MEL-28, 48 h
[60] = tested on: RPMI-8226; assay: Cytotoxicity against human RPMI8226 cells after 48 hrs by sulforhodamine B assay; conditions: RPMI-8226, 48 h

Molecule `CCN(CC)c1ccc(/C=N/NC(=O)Cc2ccc(Nc3ccnc(C(F)(F)F)c3)cc2)c(O)c1` has a GI50 [1] of 575 nM, a GI50 [2] of 2510 nM and a GI50 [3] of 525 nM. For the same molecule, the GI50 [4] was 389 nM, the GI50 [5] was 776 nM and the GI50 [6] was 794 nM. For the same molecule, the GI50 [7] was 513 nM, the GI50 [8] was 550 nM and the GI50 [9] was 537 nM. It also gave a GI50 [10] of 398 nM, a GI50 [11] of 832 nM and a GI50 [12] of 676 nM. The GI50 [13] was 977 nM, the GI50 [14] was 676 nM and the GI50 [15] was 398 nM. For the same molecule, the GI50 [16] was 501 nM, the GI50 [17] was 398 nM and the GI50 [18] was 437 nM. It also gave a GI50 [19] of 407 nM, a GI50 [20] of 316 nM and a GI50 [21] of 398 nM. The GI50 [22] was 309 nM, the GI50 [23] was 398 nM and the GI50 [24] was 316 nM. It also gave a GI50 [25] of 813 nM, a GI50 [26] of 501 nM and a GI50 [27] of 525 nM. It also gave a GI50 [28] of 2190 nM, a GI50 [29] of 1000 nM and a GI50 [30] of 646 nM. The GI50 [31] was 398 nM, the GI50 [32] was 251 nM and the GI50 [33] was 631 nM. It also gave a GI50 [34] of 398 nM, a GI50 [35] of 1740 nM and a GI50 [36] of 1050 nM. It also gave a GI50 [37] of 501 nM, a GI50 [38] of 501 nM and a GI50 [39] of 2000 nM. The GI50 [40] was 5010 nM, the GI50 [41] was 4900 nM and the GI50 [42] was 537 nM. For the same molecule, the GI50 [43] was 1000 nM, the GI50 [44] was 912 nM and the GI50 [45] was 501 nM. It also gave a GI50 [46] of 1910 nM, a GI50 [47] of 501 nM and a GI50 [48] of 1350 nM. It also gave a GI50 [49] of 389 nM, a GI50 [50] of 407 nM and a GI50 [51] of 1120 nM. For the same molecule, the GI50 [52] was 339 nM, the GI50 [53] was 437 nM and the GI50 [54] was 363 nM. It also gave a GI50 [55] of 417 nM, a GI50 [56] of 813 nM and a GI50 [57] of 676 nM. For the same molecule, the GI50 [58] was 479 nM and the GI50 [59] was 813 nM.

`CCN(CC)c1ccc(/C=N/NC(=O)c2ccc(Nc3ccnc(C(F)(F)F)c3)cc2)c(O)c1` gave a GI50 [1] of 251 nM, a GI50 [2] of 200 nM and a GI50 [3] of 316 nM. The GI50 [4] was 57.5 nM, the GI50 [5] was 479 nM and the GI50 [60] was 126 nM. It also gave a GI50 [6] of 316 nM, a GI50 [7] of 251 nM and a GI50 [8] of 66.1 nM. It also gave a GI50 [9] of 200 nM, a GI50 [10] of 158 nM and a GI50 [11] of 331 nM. The GI50 [12] was 331 nM, the GI50 [13] was 363 nM and the GI50 [14] was 282 nM. It also gave a GI50 [15] of 251 nM, a GI50 [16] of 162 nM and a GI50 [17] of 158 nM. It also gave a GI50 [18] of 182 nM, a GI50 [19] of 100 nM and a GI50 [20] of 204 nM. It also gave a GI50 [21] of 195 nM, a GI50 [22] of 324 nM and a GI50 [23] of 251 nM. It also gave a GI50 [24] of 120 nM, a GI50 [25] of 339 nM and a GI50 [26] of 398 nM. For the same molecule, the GI50 [27] was 331 nM, the GI50 [28] was 219 nM and the GI50 [29] was 200 nM. The GI50 [30] was 224 nM, the GI50 [31] was 158 nM and the GI50 [32] was 251 nM. For the same molecule, the GI50 [33] was 331 nM, the GI50 [34] was 316 nM and the GI50 [35] was 676 nM. It also gave a GI50 [36] of 417 nM, a GI50 [37] of 200 nM and a GI50 [38] of 200 nM. The GI50 [39] was 501 nM, the GI50 [40] was 316 nM and the GI50 [41] was 398 nM. For the same molecule, the GI50 [42] was 1000 nM, the GI50 [43] was 389 nM and the GI50 [44] was 490 nM. For the same molecule, the GI50 [45] was 263 nM, the GI50 [46] was 339 nM and the GI50 [47] was 251 nM. For the same molecule, the GI50 [48] was 501 nM, the GI50 [50] was 295 nM and the GI50 [51] was 398 nM. The GI50 [52] was 251 nM, the GI50 [53] was 275 nM and the GI50 [54] was 234 nM. For the same molecule, the GI50 [55] was 501 nM, the GI50 [56] was 501 nM and the GI50 [57] was 398 nM. For the same molecule, the GI50 [58] was 200 nM and the GI50 [59] was 204 nM.
